# Measurements published in patent publication US4175081A, “5-Substituted thiadiazole ureas” (priority 1977, dated 1979).
# Columns and labels:
# Crabgrass (CG) [1] = assay: Pre-emergence herbicide test; type: in vivo, Digitaria sanquinalis; conditions: Digitaria sanguinalis, pre-emergence, 336 h; 8 lb/acre; two weeks after treatment
# Method in brief: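 Crabgrass (Digitaria sanquinalis) was surface seeded in 3' plastic pots of potting soil, covered with screened soil, and watered by sub-irrigation in greenhouse trays. Pots were seeded one day before spraying in a hood with a moving belt and fixed nozzle. Plants stayed in the greenhouse on sub-irrigation, and pre-emergence control was rated visually two weeks after treatment.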
# Johnson grass (JG) [2] = assay: Pre-emergence herbicide test; type: in vivo, Sorgum helepense; conditions: Sorghum halepense, 336 h, 8 lb/acre, two weeks after treatment
# Method in brief: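 Visual injury or control rating two weeks post-treatment, after pre-emergence spray of 8 or 4 lbs active per acre (38 gal/acre) onto pots sown the previous day. Greenhouse watering by sub-irrigation only.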
# Barnyard grass (BG) [3] = assay: Pre-emergence herbicide test; type: in vivo; conditions: Echinochloa crus-galli, 336 h, 8 lb/acre, two weeks after treatment
# Method in brief: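 Greenhouse pre-emergence spray test: pots seeded one day before treatment received compound at rates of 8 or 4 lb/acre (38 gal/acre). Visual injury/control scores for Echinochloa crus-galli taken at two weeks, with watering by sub-irrigation only.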
# Amaranth pigweed (PW) [4] = assay: Pre-emergence herbicide test; type: in vivo, Amaranthus retroflexus; conditions: 336 h, 8 lb/acre, two weeks after treatment
# Method in brief: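 Visual injury or control ratings were made at two weeks on pre-emergence pots, sub-irrigated in the greenhouse. Seeds were sown a day before a hood spray delivering 8 lbs/acre (or 4 lbs/acre) of compound in 38 gallons per acre.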
# Turnip (TP) [5] = assay: Pre-emergence herbicide test; type: in vivo, Brassica sp.; conditions: Brassica rapa, pre-emergence, 336 h; 8 lb/acre; two weeks after treatment
# Method in brief: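 In this pre-emergence greenhouse test, turnip was seeded on the surface of potting soil in 3' plastic pots, lightly covered with screened soil, and watered from below. One day later the pots were sprayed in a belt-fed spray hood. Watering continued only by sub-irrigation, and percent control was visually scored two weeks after treatment.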
# Cotton (CT) [6] = assay: Pre-emergence herbicide test; type: in vivo, Gossypium hirsutum var. DPL smooth leaf; conditions: Gossypium hirsutum, 336 h, 8 lb/acre, two weeks after treatment
# Method in brief: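 Visual injury/control ratings were taken at two weeks post-spray. Pots seeded a day earlier received compound pre-emergence at 8 lbs/acre, or 4 lbs/acre, in a 38 gallon/acre spray volume, and were then held in the greenhouse, watered only from below.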
# Corn (CN) [7] = assay: Pre-emergence herbicide test; type: in vivo; conditions: Zea mays, 336 h, 8 lb/acre, two weeks after treatment
# Method in brief: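 Visual injury/control ratings were made 2 weeks post-spray on corn pots seeded (4 seeds, seed-diameter depth) the day before treatment. Application was a belt-hood spray of 38 gal/acre delivering 8 lbs active per acre, with a 4 lbs/acre rate also formulated. Watering was by sub-irrigation throughout.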
# Bean (BN) [8] = assay: Pre-emergence herbicide test; type: in vivo, Phaseolus vulgaris var. Black Valentine; conditions: Phaseolus vulgaris, 336 h, 8 lb/acre, two weeks after treatment
# Method in brief: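 Visual injury/control ratings were taken two weeks post-spray on sub-irrigated Phaseolus vulgaris var. Black Valentine. Pots were sown a day before treatment. Pre-emergence spray delivered 8 lbs actual compound per acre (or 4 lbs/acre) at 38 gallons per acre.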
# Crabgrass (CG) [9] = assay: Post-emergence herbicide test; type: in vivo, Digitaria sanquinalis; conditions: Digitaria sanguinalis, post-emergence, 336 h, two weeks after treatment; for pest or weed control at 8966.8 g/ha: 8 lb/acre
# Method in brief: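 Crabgrass (Digitaria sanquinalis) was surface seeded individually in 3' plastic pots of potting soil, covered with screened soil, and watered by sub-irrigation in greenhouse trays. Planting was staggered so seedlings reached the target stage together. Post-emergence sprays were applied in a hood with a removable belt and fixed nozzle, and control was visually rated two weeks after treatment.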
# Johnson grass (JG) [10] = assay: Post-emergence herbicide test; type: in vivo, Sorgum helepense; conditions: Sorghum halepense, 336 h, two weeks after treatment; for pest or weed control at 8966.8 g/ha: 8 lb/acre
# Method in brief: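 Visual injury or control scores taken 2 weeks after a post-emergence spray of pot-grown plants. Application was 8 lbs/acre (or 4 lbs/acre) in 38 gal/acre. Plants were held in the greenhouse with sub-irrigation only.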
# Barnyard grass (BG) [11] = assay: Post-emergence herbicide test; type: in vivo; conditions: Echinochloa crus-galli, 336 h, two weeks after treatment; for pest or weed control at 8966.8 g/ha: 8 lb/acre
# Method in brief: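 Greenhouse pot-grown barnyard grass seedlings sprayed post-emergence at 8 lbs active compound per acre (some at 4 lbs/acre) in 38 gallons per acre, then sub-irrigated. Injury or control rated visually two weeks after treatment.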
# Amaranth pigweed (PW) [12] = assay: Post-emergence herbicide test; type: in vivo, Amaranthus retroflexus; conditions: 336 h, two weeks after treatment; for pest or weed control at 8966.8 g/ha: 8 lb/acre
# Method in brief: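 Visual injury or control ratings were made two weeks after spraying, with greenhouse watering by sub-irrigation only. Treatment was post-emergence, when pigweed seedlings had 1 or 2 true leaves, at 8 lbs active compound per acre (4 lbs/acre formulations also made) in a 38 gallons-per-acre spray volume.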
# Turnip (TP) [13] = assay: Post-emergence herbicide test; type: in vivo, Brassica sp.; conditions: Brassica rapa, post-emergence, 336 h, two weeks after treatment; for pest or weed control at 8966.8 g/ha: 8 lb/acre
# Method in brief: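 A greenhouse post-emergence herbicide test on turnip. Seeds were sown on the surface of potting soil in 3' plastic pots, lightly covered with screened soil and watered from below. Planting was timed so seedlings had 1 or 2 true leaves above the cotyledons at spraying, done in a hood with a fixed nozzle. Control or injury was scored by eye after two weeks.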
# Cotton (CT) [14] = assay: Post-emergence herbicide test; type: in vivo, Gossypium hirsutum var. DPL smooth leaf; conditions: Gossypium hirsutum, post-emergence, 336 h, two weeks after treatment; for pest or weed control at 8966.8 g/ha: 8 lb/acre
# Method in brief: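 This greenhouse post-emergence test measured how well spray treatments controlled cotton. Seedlings of Gossypium hirsutum var. DPL smooth leaf, with expanded cotyledons and a first true leaf 1' in length, were sprayed with 50 ml formulations in a belt-fed spray hood. They were then returned to the greenhouse and watered only by sub-irrigation. Injury was scored visually as % control after two weeks.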
# Corn (CN) [15] = assay: Post-emergence herbicide test; type: in vivo; conditions: Zea mays, 336 h, two weeks after treatment; for pest or weed control at 8966.8 g/ha: 8 lb/acre
# Method in brief: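 Greenhouse seedlings grown in potting soil and sprayed post-emergence at 8 lbs compound/acre (formulations also made for 4 lbs/acre) in 38 gallons/acre spray volume. Watering by sub-irrigation only. Injury or control rated visually two weeks after treatment.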
# Bean (BN) [16] = assay: Post-emergence herbicide test; type: in vivo, Phaseolus vulgaris var. Black Valentine; conditions: Phaseolus vulgaris, post-emergence, 336 h, two weeks after treatment; for pest or weed control at 8966.8 g/ha: 8 lb/acre
# Method in brief: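 Bean seedlings (Phaseolus vulgaris var. Black Valentine) were grown in potting soil in 3' pots until the primary leaves expanded. They were then sprayed under a hood with a removable belt and fixed nozzle, using 50 ml formulations. Afterward they were returned to the greenhouse and watered only by sub-irrigation. Percent control was judged visually two weeks after treatment.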
# [17] = test system: variety of crops and weed species; assay: Pre- and post-emergence herbicide tests, overall assessment of Tables III-VI; type: in vivo; conditions: data of Tables III-VI
# Procedure: All crop and weed species were planted individually in 3' plastic pots containing potting soil. Four seeds each of corn, cotton, and snapbeans were seeded to a depth equal to the diameter of the seed. All other species were surface seeded and sprinkled with screened soil in an amount sufficient to cover the seed. Immediately after planting, all pots were watered by sub-irrigation in greenhouse trays. Pots for the pre-emergence phase were seeded one day before treatment.
# Compounds were tested at rates of application equivalent to 8 lbs. of actual compound per acre in a spray volume of 38 gallons per acre. Spray hood constants required to deliver the above volume are as follows:
# Two weeks after treatment, pre- and post-emergence injury or control was visually rated, and the results were as shown in the following tables. Pre-emergence data are provided in TABLE III and post-emergence data are provided in TABLE IV, for compounds having the formula illustrated in TABLE I. Correspondingly, pre-emergence and post-emergence data, respectively, are set forth in TABLES V AND VI, for compounds having the formula illustrated in TABLE II.
# [18] = test system: Yellow foxtail grass (YF); assay: Post-emergence herbicide test; type: in vivo, Setaria glauca; conditions: Setaria, 336 h, two weeks after treatment
# Method in brief: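 Visual rating of injury/control made 2 weeks post-spray. Seedlings at a uniform growth stage in soil-filled pots received a hood spray of 8 lbs/acre active compound, 38 gallons/acre volume, with a 4 lbs/acre rate also formulated. Watering was by sub-irrigation only.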
SMILES,pest or weed control at 8966.8 g/ha (Crabgrass (CG) [1]) [%],pest or weed control at 8966.8 g/ha (Barnyard grass (BG) [3]) [%],pest or weed control at 8966.8 g/ha (Turnip (TP) [5]) [%],pest or weed control at 8966.8 g/ha (Cotton (CT) [6]) [%],pest or weed control at 8966.8 g/ha (Corn (CN) [7]) [%],pest or weed control at 8966.8 g/ha (Bean (BN) [8]) [%],pest or weed control at 8966.8 g/ha (Crabgrass (CG) [9]) [%],pest or weed control at 8966.8 g/ha (Johnson grass (JG) [10]) [%],pest or weed control at 8966.8 g/ha (Barnyard grass (BG) [11]) [%],pest or weed control at 8966.8 g/ha (Amaranth pigweed (PW) [12]) [%],pest or weed control at 8966.8 g/ha (Turnip (TP) [13]) [%],pest or weed control at 8966.8 g/ha (Cotton (CT) [14]) [%],pest or weed control at 8966.8 g/ha (Corn (CN) [15]) [%],pest or weed control at 8966.8 g/ha (Bean (BN) [16]) [%],"herbicidal effectiveness / selectivity, in words [17]",other results
CNC(=O)Nc1nnc(CC(C)C)s1 [Example 21],20,10,20,10,10,100,30,30,20,20,20,50,20,60,more selective when applied to a certain crop or weed species,pest or weed control at 8966.8 g/ha (Johnson grass (JG) [2]): 10%; pest or weed control at 8966.8 g/ha (Amaranth pigweed (PW) [4]): 60%
CNC(=O)Nc1nnc(SC)s1 [Example 26],100,50,30,100,50,30,100,100,60,100,100,90,40,100,extremely effective when applied to a variety of crops and weed species,pest or weed control (Crabgrass (CG) [9]; 2 lb/acre): 50%; pest or weed control at 4483.4 g/ha (Crabgrass (CG) [9]; 4 lb/acre): 100%; pest or weed control ([18]; 2 lb/acre): 60%; pest or weed control at 4483.4 g/ha ([18]; 4 lb/acre): 100%; pest or weed control at 8966.8 g/ha ([18]; 8 lb/acre): 90%; pest or weed control (Johnson grass (JG) [10]; 2 lb/acre): 30%; pest or weed control at 4483.4 g/ha (Johnson grass (JG) [10]; 4 lb/acre): 80%; pest or weed control at 2241.7 g/ha (Barnyard grass (BG) [11]; 2 lb/acre): 10%; pest or weed control at 4483.4 g/ha (Barnyard grass (BG) [11]; 4 lb/acre): 100%; pest or weed control at 2241.7 g/ha (Amaranth pigweed (PW) [12]; 2 lb/acre): 90%; pest or weed control at 4483.4 g/ha (Amaranth pigweed (PW) [12]; 4 lb/acre): 100%; pest or weed control at 2241.7 g/ha (Turnip (TP) [13]; 2 lb/acre): 60%; pest or weed control at 4483.4 g/ha (Turnip (TP) [13]; 4 lb/acre): 100%; pest or weed control at 2241.7 g/ha (Cotton (CT) [14]; 2 lb/acre): 100%; pest or weed control at 4483.4 g/ha (Cotton (CT) [14]; 4 lb/acre): 90%; pest or weed control (Corn (CN) [15]; 2 lb/acre): 20%; pest or weed control at 4483.4 g/ha (Corn (CN) [15]; 4 lb/acre): 100%; pest or weed control at 2241.7 g/ha (Bean (BN) [16]; 2 lb/acre): 100%; pest or weed control at 4483.4 g/ha (Bean (BN) [16]; 4 lb/acre): 100%
